Assay results taken from patent US11672786B2, “Methods of treating diseases associated with repeat instability” (The Hospital for Sick Children, priority 2016, dated 2023).
“And” between values parts separate entries of the source, which are not always exact repeats. Equal entries are not always repeated.

What was measured:
[1] = test system: d(CAG)9; details: d(CAG)9 immobilization 497 RU; cited from earlier work
[2] = test system: long (CTG)20 slip-out; assay: in vitro repair assay by HeLa cell extracts, long (CTG)20 slip-out; format: biochemical, human
Text: Panel A of […] is a schematic of the in vitro repair assay. Starting DNAs and repair products released the repeat-containing fragment, which is resolved on PAGE and assessed on a molar level by Southern blotting and densitometry. Repair of different DNA substrates containing a long (CAG)20 slip-out (Panel B of FIG. 3) long (CTG)20 slip-out (Panel C of FIG. 3), a single CAG slip-out (Panel D of FIG. 3) or a single G-T mismatch (Panel E of FIG. 3), in the absence or in the presence of NA. Slipped-DNA substrates were prepared from hybrids of (CAG)50●(CTG)30, (CAG)30●(CTG)50 or of (CAG)50●(CTG)49. Repair of the G-T mismatch reconstitutes a HindIII restriction site, as shown schematically. Graphs show percentage repair efficiencies to repaired product relative to all repeat-containing fragments in the lane, values are normalized to the NA-free efficiency. […]
To determine how the binding of NA to slipped DNA structures affects repair, a series of circular slipped heteroduplex substrates was made with an excess of repeats with a nick located either 5′ or 3′ of the slip-out (FIG. 3). […] All these substrates were processed in […] by HeLa extracts and then were assessed for repair. Repair products were analyzed by Southern blotting, probed for the repeat-containing fragment, and compared with starting material, which permitted quantitative assessment of repair efficiency at a molar level. […]

[3] = test system: HD fibroblasts (CAG)43; assay: small-pool PCR across HD repeat tract, HD primary fibroblasts GM02191; format: cell-based, human; details: 40 days; for % Contraction / % Expansion / % Unchanged / Average repeat size: 50 uM NA
Experimental: The construction of the HT1080-(CAG)850 cell model was described previously (Sathasivam et al., 1997, Hum. Genet., 99:692-5). Briefly, HT1080 (ATCC) human fibrosarcoma cells were co-transfected with a plasmid (LC15-R) containing 800-850 (CTG)●(CAG) repeats (Nakatani et al., 2005, Nat. Chem. Biol., 1:39-43) and a plasmid encoding PhiC31 integrase. Transfection was performed with a Nucleofector (Lonza, Basel, Switzerland), and stably transfected clones were selected with puromycin. […] The HT1080-non-transcribing (CAG)850 cell model was established by transfecting a plasmid modified from pLC16 by inserting an additional SV40 polyadenylation signal downstream of the repeats (in addition to the original polyadenylation signals located upstream of the repeats), so that CAG/CTG repeats are floxed by transcription-terminator elements. The AttB-PhiC31 system has been widely used for single copy integration. […] The HT1080 model cells and an HD primary fibroblast cell line, GM09197 (Coriell Biorepository) with a large expanded allele of 180 CAG repeats and a non-expanded allele of 23 repeats (Sathasivam et al., 1997, Hum. Genet., 99:[…]), the HD primary fibroblast cell line, GM02191 (Coreill Biorepository) with an expanded allele of 43 CAG repeats and a non-expanded allele of 19 repeats, were cultured at 37° C. with 5% CO2 in Dulbecco's modified Eagle's medium supplemented with 10% fetal bovine serum and 1% penicillin/streptomycin. Cells were treated with or without continuous exposure to 50-μM NA for 30 days (HT1080 cells) or for 40 days (fibroblast cells). For experiments on non-proliferating cells, HT1080 cells were grown to confluence and then treated for the same period. WST-1 assay was performed according to the manufacturer's instructions (Roche, Basel, Switzerland). All cell lines were tested to be free of Mycoplasma. Three biological replicates were performed for each experiment.
Genomic DNA was extracted from HT1080-(CAG)850 clones and HD primary fibroblasts using the Gentra Puregene Cell Kit (Qiagen, Valencia, Calif.). The expanded (CTG)●(CAG) repeats were sized by small-pool PCR (sp-PCR) followed by Southern blot as described previously (Sathasivam et al., 1997, Hum. Genet., 99:692-5). For HT1080 models, small-pool PCR (spPCR) was performed with the input of 1.4-1.7 genome equivalents. The repeat size difference in the models is, at most, 3000 base-pairs, therefore, being strictly conservative, a bias toward amplifying the shorter allele can be possible, even under optimized PCR conditions described herein. For HD primary fibroblasts, sp-PCR & Southern blots were performed as described previously with slight modifications (Tome et al., 2013, PLoS Genet., 9:e1003280). Briefly, the PCR primers listed in Table 1 were used, and blots were hybridized with a DIG-labeled (CAG)7 locked nucleic acid probe (Nakamori et al. 2009, Neuromuscul. Disord., 19:759-62). At least 50 alleles were analyzed for each of the three experiments (more than 150 alleles for a total study). Repeat analyses are summarized in Table 2, compiled from complete small-pool-PCR datasets for each repetition of each experiment. For the histograms in FIGS. 4D, 4E, 10, 11, 5B, 5D, 5E, 14 and 15B, the Y-axis, “% of repeat population” was calculated by determining the proportion of >50 individual small-pool PCR reactions across the CAG repeat tract, that harbored a certain size of repeat product with a certain length. Cell clones were grown 30 or 40 days with or without NA (see, for example, Sathasivam et al., 1997, Hum. Genet., 99:692-5). Specifically, the histograms of repeat length distributions were from at least two different cell clones. Length distributions were determined as follows: Small-pool PCR followed by Southern blot for analysis of CAG/CTG repeat length.

[4] = single experiments Ex 1-3, cut-off ±10 repeats

naphthyridine-azaquinolone
changes in the SPR intensity on NA binding [1]: 140 RU | effect on repair of long (CTG)20 slip-outs [2]: doesn't affect the repair efficiency | lowest repeat length reached by contractions ([3]; 50 μM NA, HD disease threshold 35 units): ≥ 20 repeats | % Contraction ([3]; Total): 25.3% | % Expansion ([3]; Total): 4.9% | % Unchanged ([3]; Total): 69.8% | Average repeat size ([3]; Total): 40.7 number of repeats | % Unchanged ([3]; single experiments Ex 1-3): 67.0% and 69.2% and 73.2% | Average repeat size ([3]; single experiments Ex 1-3): 40.6 number of repeats and 40.4 number of repeats and 41.0 number of repeats | % Contraction [3, 4]: 28.4% and 25.2% and 22.3% | % Expansion [3, 4]: 4.6% and 5.6% and 4.5%
